Data set [1] can be described thus: accelerated stability model: paricalcitol solution in stoppered vials or ampule, inverted, 80° C., 21 days, HPLC. Type of data set: physicochemical. Here is the method:
In order to effectively evaluate different container closures, an accelerated stability model was devised, wherein vials that contained a paricalcitol solution and were sealed with 27 different types of stoppers were stored inverted and protected from light at 80° C. for 21 days. The vials were different only in the composition of the stoppers which were obtained from commercially available sources. Throughout the 21 day trial, samples were removed at day 2, 7, 14 and 21, and the contents of the vial were analyzed by HPLC (High Pressure Liquid Chromatography) to determine the concentration of the test compound paricalcitol compared to a control sample of known concentration. The control sample consisted of a paricalcitol injection solution stored in a sealed glass ampule which maintained 100% potency for the entirety of the test (21 days). The relative concentration of the paricalcitol in the vials stored with test stoppers compared to the control sample was measured indicating stability of the paricalcitol over the 21 day test. In addition, the accelerated shelf-life study conditions were conducted on an identical vial wherein the headspace of the vials was blanketed with argon gas above the paricalcitol solutions prior to sealing with the appropriate stopper. The argon blanketed sample containing a lower concentration of oxygen was compared to the control sample to determine the stability of the test compound in a more inert atmosphere. The 80° C. 21 day rapid screening method of solutions of paricalcitol in the presence of different stoppers was designed to predict the stability of the test compound (i.e., paricalcitol) relative to the containers that are used in the current marketed product. The paricalcitol solution preparation: (5 mcg/mL in water-propylene glycol-ethanol/50:30:20; as defined under USP28-NF23 Page 1471 guidelines) contains not less than 90.0 percent and not more than 110.0 percent of the labeled amount of paricalcitol (C27H44O3). 1 mL of solution was added to a 5 mL or 10 mL (for 20 mm stopper) Type 1 glass vial. The vials were sealed with the various types of stoppers. In order to evaluate the effect of oxygen, a second series of identical vials was blanketed with argon prior to capping with the stoppers. All of the samples were stored inverted in a light-protected, 80° C. oven to obtain maximum contact between solution and the stopper. Ampule samples (with no headspace argon gassing) were prepared and stored along with vials under the same condition to serve as a control. At least 2 samples for each type of stopper were pulled out at 2, 7, 14, and 21 day time points and assayed using HPLC without further dilution. Paricalcitol concentration profiles from the vials containing different composition stoppers were compared to the same solution packaged in ampules. The relative concentration of remaining paricalcitol was plotted over the course of the 21 day test to determine the relative stability of paricalcitol in the presence of the test stopper. Chromatographic system used: The liquid chromatograph was equipped with a 252-nm detector and a 4.6-mm×25-cm column that contains 5-μm packing L1 with a flow rate about 2 mL per minute. […] Separately inject equal volumes (about 100 to 200 μL) of the Standard preparation and the Assay preparation into the chromatograph, record the chromatograms, and measure the responses for the major peaks. Calculate the quantity, in μg, of paricalcitol (C27H44O3) in each mL of the Injection taken by the formula: C(rU/rS), in which C is the concentration, in μg per mL, of paricalcitol in the control standard, calculated on the basis of the content of paricalcitol in the USP Paricalcitol Solution RS; and rU and rS are the paricalcitol peak responses obtained from the test samples and the control standard, respectively. Results Five stability studies were conducted to evaluate the stoppers. […]

The conditions of data set [2]: commercially available injection vial containing a solution of paricalcitol; cited from earlier work.
Data set [3] is described as follows: formulation study of the effect of BHT on paricalcitol stability, 35 day 80° C. degradation model. Type of data set: physicochemical. Particulars: no BHT, ampule and vial with 4432/50/Flu/B2-40 stopper, 35 days. How it is done: BHT is an antioxidant and is often used to protect chemicals and materials from oxidative degradation and is present in several of the stoppers. Levels of BHT were identified in the test samples during the 21 day, 80° C. storage and during a separate 25, 30, and 40° C. stability studies conducted over a 9-month interval. […] To determine, whether or not BHT would enhance the stability or cause degradation of the paricalcitol solution, a formulation study was conducted to evaluate the effect of BHT on the stability of paricalcitol in the Zemplar® formulation with the current stopper using a 35 day 80° C. degradation model. In this study, different amounts of BHT were added to the Zemplar® formulation with concentrations of 0.05, 0.1, 0.5, and 1.0 mcg/mL. The controls consisted of the Zemplar formulation without BHT contained in ampules and vials sealed with either […]-1/FT/B2-40 or the 4432/50/Flu/B2-40 stoppers. […] Therefore, causes not fully understood led to the enhanced stabilization of the paricalcitol solution contained in samples with 4432/50/Flu/B2-40 stoppers.

Each structure is given as a SMILES string.

Regarding `C[C@H](/C=C/[C@H](C)C(C)(C)O)[C@H]1CC[C@H]2/C(=C/C=C3C[C@@H](O)C[C@H](O)C3)CCC[C@]12C` [paricalcitol], the “stability with argon headspace gassing” value in data set [1] (Study 1, argon headspace, chlorobutyl stoppers versus other stoppers) was “more stable”. Besides, the “concentration of paricalcitol within the vial” value in data set [1] (Study 1, without argon headspace, Stopper #8 (Ashland chlorobutyl, Tefzel)) was “comparable to the sample stored in the ampule”. Moreover, the “degradation over the 21 day test period” value in data set [1] (Study 1, without argon headspace, Stopper #8 (Ashland chlorobutyl, Tefzel) and Stopper #7 (Ashland chlorobutyl, uncoated) versus stoppers #3, 10, 12, 13) is “least degradation”. The paricalcitol concentration entry is “remained unchanged” in data set [1] (Study 2, West chlorobutyl and Daikyo chlorinated butyl stoppers, 21 days at 80° C.); “remained constant” in data set [3]. The “concentration of paricalcitol at the 21 day interval” value in data set [1] (Study 2, argon headspace, butyl, bromobutyl and POE stoppers compared to chlorobutyl and chlorinated butyl stoppers) is listed as “still lowest”. In data set [1] (Study 3, without argon, Ashland 5212 chlorobutyl stoppers with Plasma and Prop coatings), the stability profile entry is “constant stability profiles”. Moreover, the “performance relative to ampule” value in data set [1] (Study 4, West 4432/50 stopper without any barrier coating) is given as “performed as well as the ampule sample”. In addition, the “concentration of paricalcitol throughout the 21 day test” value in data set [1] (Study 4, stoppers consisting of chlorobutyl material) is “consistently maintained the highest concentration”. In addition, in data set [1] (vial with D777-1/FT/B2-40 stopper (marketed stopper), 80° C.), the “time point at which potency drop starts” value turned out to be 7 days. The “rate of decomposition over the 21 days” value in data set [1] (vials sealed with chlorobutyl or chlorinated butyl stoppers, 80° C.) is listed as “slowest rate of decomposition”. Moreover, in data set [2], the current shelf-life is recorded as 1 year.

Values taken from patent US20070166187A1, “Stabilization of paricalcitol using chlorobutyl or chlorinated butyl stoppers” (priority 2006, published 2007).
